ChEMBL document CHEMBL1201862, “PubChem BioAssay data set” (2004)
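Cultured in 96-well plates, cells were exposed to test compound for 48 hours across five concentrations. At the GI50, growth is halved.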 The source made the active and inactive calls. Cut-off read from the data, not from the text of the source: active = GI50 up to about 1.1 µM and inactive = higher.

How the values were obtained:
Test in all cases: NCI tumour cell line growth inhibition, 48 h
[1] = tested on: MDA-MB-231
[2] = tested on: MDA-N
[3] = tested on: HCT-116
[4] = tested on: OVCAR-3
[5] = tested on: 786-0
[6] = tested on: CCRF-CEM
[7] = tested on: NCI-H23
[8] = tested on: SW-620
[9] = tested on: SK-MEL-5
[10] = tested on: HT-29
[11] = tested on: A549
[12] = tested on: SK-OV-3
[13] = tested on: SNB-19
[14] = tested on: A498
[15] = tested on: NCI-H226
[16] = tested on: Malme-3M
[17] = tested on: OVCAR-4
[18] = tested on: CAKI-1
[19] = tested on: NCI-H522
[20] = tested on: UACC-257

SMILES | GI50 [1] | GI50 [2] | GI50 [3] | GI50 [4] | GI50 [5] | GI50 [6] | GI50 [7] | GI50 [8] | GI50 [9] | GI50 [10] | GI50 [11] | GI50 [12] | GI50 [13] | GI50 [14] | GI50 [15] | GI50 [16] | GI50 [17] | GI50 [18] | GI50 [19] | GI50 [20]
CN(C)c1ccc(/C=C/c2ccc3ccccc3[n+]2C)cc1 | 3.28 µM (inactive) | 2.03 µM (inactive) | 1.81 µM (inactive) | 2.97 µM (inactive) | 6.76 µM (inactive) | 1.66 µM (inactive) | 1.48 µM (inactive) | 2.12 µM (inactive) | 3.06 µM (inactive) | 3.37 µM (inactive) | 3.13 µM (inactive) | 5.73 µM (inactive) | 4.31 µM (inactive) | 20.1 µM (inactive) | 3.13 µM (inactive) | 4.53 µM (inactive) | – | – | – | –
OCC(O)C(O)C(O)C(/C=N\Nc1ncnc2ccc(Br)cc12)=N/Nc1ncnc2ccc(Br)cc12 (stereo not drawn) | 2.87 µM (inactive) | 15.1 µM (inactive) | 3.09 µM (inactive) | 2.72 µM (inactive) | 5.47 µM (inactive) | – | – | 6.62 µM (inactive) | 3.37 µM (inactive) | 4.44 µM (inactive) | 23.2 µM (inactive) | 6.38 µM (inactive) | 51.5 µM (inactive) | 50.5 µM (inactive) | 5.58 µM (inactive) | 3.53 µM (inactive) | 2.94 µM (inactive) | 4.55 µM (inactive) | 0.596 µM (active) | 7.48 µM (inactive)
O=C1C(Cl)=C(N2C(=O)CCCC2=O)C(=O)c2ccccc21 | 20 µM (inactive) | 17.2 µM (inactive) | 16.8 µM (inactive) | 31.6 µM (inactive) | 16.9 µM (inactive) | 4.13 µM (inactive) | 17.2 µM (inactive) | 20.9 µM (inactive) | 16.6 µM (inactive) | 15.7 µM (inactive) | 22.1 µM (inactive) | > 100 µM (inactive) | > 10 µM (inactive) | 16.8 µM (inactive) | 59.4 µM (inactive) | – | – | 14 µM (inactive) | 1.84 µM (inactive) | 19.1 µM (inactive)
CN(C)CCCN1c2ccc([N+](=O)[O-])cc2CCc2cc([N+](=O)[O-])ccc21 | 10.3 µM (inactive) | 13.6 µM (inactive) | 13.7 µM (inactive) | 16 µM (inactive) | 13.9 µM (inactive) | 11.4 µM (inactive) | 18.6 µM (inactive) | 16 µM (inactive) | 10.6 µM (inactive) | 12.4 µM (inactive) | 16.4 µM (inactive) | 14.9 µM (inactive) | 15.4 µM (inactive) | 10.3 µM (inactive) | 15.7 µM (inactive) | 17.8 µM (inactive) | – | 14.5 µM (inactive) | 17.4 µM (inactive) | 13.9 µM (inactive)
O=C(NNc1ccc([N+](=O)[O-])cc1[N+](=O)[O-])/C(O)=C\C(=O)c1ccccc1 | 23.4 µM (inactive) | 27.9 µM (inactive) | 14.4 µM (inactive) | – | 13.2 µM (inactive) | 16.9 µM (inactive) | 20 µM (inactive) | 16.6 µM (inactive) | 20.7 µM (inactive) | – | 17.6 µM (inactive) | 18.6 µM (inactive) | 25.4 µM (inactive) | 28.9 µM (inactive) | 21.2 µM (inactive) | 30 µM (inactive) | 22.6 µM (inactive) | 21.1 µM (inactive) | 25.6 µM (inactive) | 29 µM (inactive)
C/C(=N\NS(=O)(=O)c1ccc(C)cc1)P(=O)(O)O | > 100 µM (inactive) | > 100 µM (inactive) | > 100 µM (inactive) | > 100 µM (inactive) | > 100 µM (inactive) | – | > 100 µM (inactive) | > 100 µM (inactive) | > 100 µM (inactive) | > 100 µM (inactive) | > 100 µM (inactive) | > 100 µM (inactive) | > 100 µM (inactive) | > 100 µM (inactive) | > 100 µM (inactive) | > 100 µM (inactive) | > 100 µM (inactive) | > 100 µM (inactive) | > 100 µM (inactive) | > 100 µM (inactive)
CC1(c2cccc(Cl)c2)CC(c2cccc(Cl)c2)=C(C#N)C(=C(C#N)C#N)N1 (stereo not drawn) | 22.3 µM (inactive) | 20.1 µM (inactive) | 16.6 µM (inactive) | 10.3 µM (inactive) | 15.7 µM (inactive) | 2.92 µM (inactive) | 17.4 µM (inactive) | 12.1 µM (inactive) | 14.6 µM (inactive) | 27.4 µM (inactive) | 19.5 µM (inactive) | 18.7 µM (inactive) | 17.9 µM (inactive) | 20.3 µM (inactive) | 18.7 µM (inactive) | 17.1 µM (inactive) | 14.2 µM (inactive) | 16.5 µM (inactive) | – | 20.1 µM (inactive)
COCCNc1cncc(C(N)=O)c1 | > 100 µM (inactive) | > 100 µM (inactive) | > 100 µM (inactive) | > 100 µM (inactive) | > 100 µM (inactive) | > 100 µM (inactive) | > 100 µM (inactive) | > 100 µM (inactive) | > 100 µM (inactive) | > 100 µM (inactive) | > 100 µM (inactive) | > 100 µM (inactive) | > 100 µM (inactive) | > 100 µM (inactive) | > 100 µM (inactive) | – | > 100 µM (inactive) | > 100 µM (inactive) | > 100 µM (inactive) | > 100 µM (inactive)
Clc1ccc(-c2nc(-c3ccc(Cl)cc3)[s+]s2)cc1 | 46.9 µM (inactive) | > 100 µM (inactive) | 51.4 µM (inactive) | 51.2 µM (inactive) | 38 µM (inactive) | 37 µM (inactive) | 78 µM (inactive) | 55.8 µM (inactive) | 47.8 µM (inactive) | 48.1 µM (inactive) | 39.9 µM (inactive) | 41.1 µM (inactive) | 50.5 µM (inactive) | > 100 µM (inactive) | – | 18.7 µM (inactive) | 27.7 µM (inactive) | > 100 µM (inactive) | 29.4 µM (inactive) | 55.2 µM (inactive)
COc1ccc(NC(C)=O)c(C(=O)CCNC(C)=O)c1 | > 100 µM (inactive) | > 100 µM (inactive) | > 100 µM (inactive) | > 100 µM (inactive) | > 100 µM (inactive) | > 100 µM (inactive) | > 100 µM (inactive) | > 100 µM (inactive) | > 100 µM (inactive) | > 100 µM (inactive) | > 100 µM (inactive) | > 100 µM (inactive) | > 100 µM (inactive) | > 100 µM (inactive) | > 100 µM (inactive) | – | > 100 µM (inactive) | > 100 µM (inactive) | > 100 µM (inactive) | > 100 µM (inactive)
COC(=O)c1c2c(cc3c1CC1(Cc4cc5c(c(C)c4C1)CCC5)C3)CCC2 (stereo not drawn) | > 100 µM (inactive) | > 100 µM (inactive) | > 100 µM (inactive) | > 100 µM (inactive) | > 100 µM (inactive) | > 100 µM (inactive) | > 100 µM (inactive) | > 100 µM (inactive) | > 100 µM (inactive) | > 100 µM (inactive) | > 100 µM (inactive) | > 100 µM (inactive) | > 100 µM (inactive) | > 100 µM (inactive) | – | > 100 µM (inactive) | > 100 µM (inactive) | > 100 µM (inactive) | > 100 µM (inactive) | > 100 µM (inactive)
